Assay results from patent publication US11319304B2, “Pyridine quinoline compounds as MGLUR4 allosteric potentiators, compositions, and methods of treating neurological dysfunction” (Vanderbilt University, priority 2017, dated 2022).

Biological target: mGluR4 (Homo sapiens, UniProt Q14833)
Experiment: mGlu4 PAM potentiation assay, CHO cells transfected with human mGluR4, Ca2+-sensitive dye fluorescence
Type: cell-based
Description: The disclosed compounds and compositions can be evaluated for their ability to act as a potentiator of metabotropic glutamate receptor activity, in particular mGluR4 activity, by any suitable known methodology known in the art. For example, Chinese Hamster Ovary (CHO) cells transfected with human mGluR4 or HEK cells co-transfected with rat mGluR4 and the G-protein regulated Inwardly Rectifying Potassium channel (GIRK) were plated in clear bottom, assay plates for assay in a Hamamatsu FDSS Fluorometric Plate Reader. The cells were loaded with either a Ca2+-sensitive fluorescent dye or the thallium responsive dye and the plates were washed and placed into a suitable kinetic plate reader. For human mGluR4 assays, a fluorescence baseline was established for 3-5 seconds, the disclosed compounds were then added to the cells, and the response in cells was measured. Approximately two and a half minutes later, a concentration of mGluR4 orthosteric agonist (e.g. glutamate, L-AP4, or L-SOP) eliciting approximately 20% (EC20) of the maximal agonist response was added to the cells, and the response was measured. Two minutes later, a concentration of mGluR4 agonist (e.g. glutamate, L-AP4, or L-SOP) eliciting 80% (EC80) of the maximal agonist response was added to the cells, and the response was measured. For rat mGluR4/GIRK experiments, a baseline was established for approximately five seconds, disclosed compounds were added, and either an EC20 or EC80 concentration of agonist was added approximately two and one half minutes later. Potentiation or antagonism of the agonist response of mGluR4 by the disclosed compounds was observed as an increase or decrease in response to the EC20 concentration of agonist in the presence of compound compared to the response to agonist in the absence of compound. Similarly, potentiation or antagonism of the agonist response of mGluR4 by the disclosed Compounds was observed as an increase or decrease in response to the EC80 concentration of agonist in the presence of compound compared to the response to agonist in the absence of compound.
The above described assay operated in two modes. In the first mode, a range of concentrations of the disclosed compounds are added to cells, followed by a single fixed concentration of agonist. If the compound acts as a potentiatior, an EC50 value for potentiation and a maximum extent of potentiation by the compound at this concentration of agonist is determined by non-linear curve fitting. If the compound acts as an antagonist, an IC50 value is determined by non-linear curve fitting. In the second mode, several fixed concentrations of the disclosed compounds are added to various wells on a plate, followed by a range in concentrations of agonist for each concentration of disclosed compound. The EC50 values for the agonist at each concentration of compound are determined by non-linear curve fitting. A decrease in the EC50 value of the agonist with increasing concentrations of the sample compound (a leftward shift of the agonist concentration-response curve) is an indication of the degree of mGluR4 potentiation at a given concentration of the sample compound. A decrease in the maximal response of the agonist with increasing concentrations of the sample compounds, with or without a rightward shift in agonist potency, is an indication of the degree of antagonism at mGluR4. The second mode also indicates whether the sample compounds also affect the maximum response to mGluR4 to agonists.

mGluR4, sequence (Q14833 33-912 limits assumed): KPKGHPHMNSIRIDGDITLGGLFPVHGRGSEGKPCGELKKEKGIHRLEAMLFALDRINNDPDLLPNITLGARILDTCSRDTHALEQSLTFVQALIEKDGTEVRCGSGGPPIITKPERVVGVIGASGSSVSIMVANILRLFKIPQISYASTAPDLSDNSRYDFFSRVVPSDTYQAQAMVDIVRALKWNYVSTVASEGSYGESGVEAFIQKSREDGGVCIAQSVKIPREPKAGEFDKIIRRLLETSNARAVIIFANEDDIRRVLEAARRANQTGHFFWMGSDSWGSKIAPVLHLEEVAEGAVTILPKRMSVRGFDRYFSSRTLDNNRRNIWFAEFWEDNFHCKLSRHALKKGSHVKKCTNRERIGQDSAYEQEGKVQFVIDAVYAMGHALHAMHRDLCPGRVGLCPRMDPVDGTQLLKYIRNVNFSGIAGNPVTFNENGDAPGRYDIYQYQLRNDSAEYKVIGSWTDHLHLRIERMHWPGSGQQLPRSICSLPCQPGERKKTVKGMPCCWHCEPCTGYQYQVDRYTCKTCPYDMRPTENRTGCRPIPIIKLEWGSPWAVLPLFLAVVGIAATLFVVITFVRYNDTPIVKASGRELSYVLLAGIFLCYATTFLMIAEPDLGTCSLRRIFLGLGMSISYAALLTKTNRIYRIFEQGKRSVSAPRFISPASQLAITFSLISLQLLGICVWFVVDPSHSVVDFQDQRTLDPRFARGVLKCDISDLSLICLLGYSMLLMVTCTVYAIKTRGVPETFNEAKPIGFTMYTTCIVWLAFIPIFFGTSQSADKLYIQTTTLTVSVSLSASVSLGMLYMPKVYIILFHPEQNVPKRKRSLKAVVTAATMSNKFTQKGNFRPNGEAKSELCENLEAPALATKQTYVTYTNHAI

SMILES | EC50
O=C(Nc1ccc2c(OCC3CCOC3)nccc2c1)c1ncccc1O (stereo not shown) [Compound 17] | 56.3 nM
O=C(Nc1ccc2c(OCC3CCCCO3)nccc2c1)c1ccccn1 (stereo not shown) [Compound 8] | 159 nM
O=C(Nc1ccc2c(OCc3cccnc3)nccc2c1)c1ccc(F)cn1 [Compound 114] | 228 nM
O=C(Nc1ccc2c(OCC3CCOCC3)nccc2c1)c1ccc(F)cn1 [Compound 105] | 34.1 nM
CC1(C)CC(Oc2nccc3cc(NC(=O)c4ccccn4)cc(F)c23)CCO1 (stereo not shown) [Compound 100] | 70.8 nM
O=C(Nc1ccc2c(OCC3CCOCC3)ncc(F)c2c1)c1ncccc1O [Compound 67] | 246 nM
O=C(Nc1cc(F)c2c(OCC3COCCO3)nccc2c1)c1ccc(F)cn1 (stereo not shown) [Compound 93] | 302 nM
O=C(Nc1ccc2c(OCC3CCOCC3)ncc(F)c2c1)c1ccccn1 [Compound 65] | 144 nM
Nc1cccnc1C(=O)Nc1ccc2c(O[C@H]3CCOC3)nccc2c1 [Compound 10] | 529 nM
O=C(Nc1ccc2c(OC3CCOCC3)nccc2c1)c1ncccc1O [Compound 14] | 331 nM
CCOCCOc1nccc2cc(NC(=O)c3ncccc3O)ccc12 [Compound 5] | 229 nM
CC(C)(C)OCCOc1nccc2cc(NC(=O)c3ccccn3)ccc12 [Compound 28] | 419 nM
Nc1cccnc1C(=O)Nc1cc(F)c2c(OCC3CCOC3)nccc2c1 (stereo not shown) [Compound 79] | 48.2 nM
CC1(COc2nccc3cc(NC(=O)c4ncccc4N)ccc23)CCOCC1 [Compound 32] | 325 nM
O=C(Nc1ccc2c(OCC3CCOC3)nccc2c1)c1cccc(Cl)n1 (stereo not shown) [Compound 86] | 619 nM
O=C(Nc1ccc2c(OCC3CCOC3)nccc2c1)c1ccccn1 (stereo not shown) [Compound 15] | 59.5 nM
O=C(Nc1ccc2c(OCC3CCOC3)nccc2c1)c1ncccc1Cl (stereo not shown) [Compound 19] | 339 nM
CC1CC(Oc2nccc3cc(NC(=O)c4ncccc4N)ccc23)CCO1 (stereo not shown) [Compound 44] | 804 nM
Nc1cccnc1C(=O)Nc1ccc2c(OC3CCS(=O)(=O)C3)nccc2c1 (stereo not shown) [Compound 55] | 634 nM
CC1COCC1COc1nccc2cc(NC(=O)c3ccccn3)ccc12 (stereo not shown) [Compound 46] | 339 nM
O=C(Nc1ccc2c(Oc3ccncc3)nccc2c1)c1ccc(F)cn1 [Compound 113] | 608 nM
O=C(Nc1cc(F)c2c(OCC3COCCO3)nccc2c1)c1ccccn1 (stereo not shown) [Compound 90] | 116 nM
COCCOc1nccc2cc(NC(=O)c3ccccn3)ccc12 [Compound 20] | 739 nM

SMILES | EC50
O=C(Nc1ccc2c(OC3CCSC3)nccc2c1)c1ccccn1 (stereo not shown) [Compound 54] | 915 nM
CO[C@H](C)COc1nccc2cc(NC(=O)c3ncccc3N)ccc12 [Compound 7] | 152 nM
CC1(C)CC(COc2nccc3cc(NC(=O)c4ncccc4N)ccc23)CO1 (stereo not shown) [Compound 49] | 665 nM
CC1CC(Oc2nccc3cc(NC(=O)c4ccccn4)ccc23)CCO1 (stereo not shown) [Compound 43] | 908 nM
Nc1cccnc1C(=O)Nc1cc(F)c2c(OCC3COCCO3)nccc2c1 (stereo not shown) [Compound 91] | 94 nM
CC1(C)CC(COc2nccc3cc(NC(=O)c4ccccn4)ccc23)CO1 (stereo not shown) [Compound 48] | 452 nM
O=C(Nc1cc(F)c2c(OCC3CCOC3)nccc2c1)c1nc(F)ccc1F (stereo not shown) [Compound 84] | 172 nM
CC1(C)CC(COc2nccc3cc(NC(=O)c4ncccc4N)ccc23)CCO1 (stereo not shown) [Compound 35] | 227 nM
CC1(C)CC(Nc2nccc3cc(NC(=O)c4ncccc4N)ccc23)CCO1 (stereo not shown) [Compound 76] | 616 nM
O=C(Nc1cc(F)c2c(OCC3CCOC3)nccc2c1)c1ncccc1F (stereo not shown) [Compound 80] | 312 nM
Nc1cccnc1C(=O)Nc1ccc2c(OC[C@H]3CCOC3)nccc2c1 [Compound 62] | 63 nM
CO[C@H](C)COc1nccc2cc(NC(=O)c3ccccn3)ccc12 [Compound 6] | 166 nM
Nc1cccnc1C(=O)Nc1ccc2c(OCC3COCCO3)ncc(F)c2c1 (stereo not shown) [Compound 68] | 90.5 nM
O=C(Nc1ccc2c(O[C@H]3CCOC3)nccc2c1)c1ncccc1O [Compound 11] | 883 nM
COCCOc1nccc2cc(NC(=O)c3ncccc3O)ccc12 [Compound 22] | 502 nM
CC1(C)CC(Oc2nccc3cc(NC(=O)c4ncccc4N)cc(F)c23)CCO1 (stereo not shown) [Compound 106] | 127 nM
Cc1ccc(C(=O)Nc2ccc3c(OCC4CCOCC4)nccc3c2)nc1 [Compound 104] | 539 nM
O=C(Nc1ccc2c(OCC3CCOC3)nccc2c1)c1ccsn1 (stereo not shown) [Compound 57] | 159 nM
O=C(Nc1ccc2c(OCC3CCOC3)nccc2c1)c1ccc(Cl)cn1 (stereo not shown) [Compound 85] | 615 nM
O=C(Nc1cc(F)c2c(OCC3CCOCC3)nccc2c1)c1ncccc1C(F)(F)F [Compound 98] | 978 nM
O=C(Nc1ccc2c(OCC3CCOC3)nccc2c1)c1ccncn1 (stereo not shown) [Compound 107] | 226 nM
O=C(Nc1cc(F)c2c(OCC3COCCO3)nccc2c1)c1ncccc1F (stereo not shown) [Compound 92] | 152 nM
O=C(Nc1ccc2c(OCC3COCCO3)nccc2c1)c1cccc(F)n1 (stereo not shown) [Compound 118] | 216 nM
